Assay results as given in patent US12007393B2, “Methods based on the detection of RAD51 foci in tumor cells” (Fundació Privada Institut D'Investigació Oncològica De Vall …, priority 2017, dated 2024).
“Also recorded” adds a separate entry of the source.

Columns and labels:
RAD51 foci = test: RAD51 nuclear foci by immunofluorescence in FFPE PDX tumors; assay type: in vivo, mice
Experimental: (§1) The following primary antibodies were used for immunofluorescence: rabbit anti-RAD51 (Santa Cruz Biotechnology H-92, dilution 1:250), rabbit anti-RAD51 Ab from Cell Signalling Technologies (CST #8875, dilution 1:25 from a 83 μg/ml stock), rabbit anti-RAD51 Ab from Abcam (ab-133534, dilution 1:1000), mouse anti-Geminin (NovoCastra NCL-L, 1:100 in PDX samples, 1:60 in patient samples), rabbit anti-Geminin (ProteinTech 10802-1-AP, 1:400), mouse anti-BRCA1 (Santa Cruz Biotechnology D-9, 1:50 for C-term; or Abcam MS110, 1:200 for N-term), and mouse anti-γH2AX (Millipore JBW301, 1:200). The secondary antibodies used were: goat anti-rabbit Alexa fluor 568 (Invitrogen; 1:500), goat anti-mouse Alexa fluor 488 (Invitrogen; 1:500), goat anti-mouse Alexa fluor 568 (Invitrogen; 1:500) and goat anti-rabbit Alexa fluor 488 (Invitrogen; 1:500).
(§2) Thin tissue sections were deparaffinized with xylene and hydrated with decreasing concentrations of ethanol. […]
(§3) RAD51 was quantified by scoring: a) the percentage of tumor cells with RAD51 nuclear foci, b) the percentage of γH2AX foci positive cells with RAD51 foci, or c) the percentage of geminin positive cells with RAD51 foci, as indicated in the Figures. […] Optimally, one-hundred geminin or γH2AX foci-positive cells from at least 3 different and representative areas of each sample were analyzed. […]

[1] = test system: patient-derived tumor xenografts (PDXs) of breast, ovarian and pancreatic cancer; test: In vivo PDX sensitivity to PARPi (antitumor activity by RECIST on % tumor volume change); design: species or system mice
Experimental: Fresh tumor samples from patients with breast or high-grade serous ovarian cancer were prospectively collected for implantation into nude mice under protocols approved by Vall Hebron's institutional review board (IRB), Institut Curie or Institut Paoli-Calmettes. Experiments were conducted following the European Union's animal care directive (2010/63/EU) and were approved by the Ethical Committee of Animal Experimentation of the Vall d'Hebron Research Institute (Barcelona, Spain) or by the Ethical Committee of Animal Experimentation CEEA-51 (Evry, France). Fresh primary or metastatic human tumors were obtained from patients at time of surgery or biopsy and immediately implanted into the mammary fat pad (surgery samples) or the lower flank (metastatic samples) of 6-week-old female athymic HsdCpb:NMRI-Foxnlnu mice (Harlan Laboratories). Animals were continuously supplemented with 1 μM 17b-estradiol (Sigma-Aldrich) in their drinking water. Upon growth of the engrafted tumors, the model was perpetuated by serial transplantation onto the lower flank. In each passage, flash-frozen and formalin-fixed paraffin embedded (FFPE) samples were taken for genotyping and histological studies.
To evaluate the sensitivity to PARP inhibition, tumor-bearing mice were equally distributed into treatment groups of 5 to 10 mice with tumors ranging 70 to 300 mm3. Olaparib 50 mg/kg or 100 mg/kg, Niraparib 75 mg/kg or 50 mg/kg, or Veliparib 100 mg/kg were administered per gavage (p.o.) daily (in 10% v/v DMSO/10% w/v Kleptose [HP-β-CD]). Tumor growth was measured with caliper bi-weekly from first day of treatment to day 21 and every 7-10 days in the acquired resistance setting. To generate PDX models with acquired resistance to PARPi, olaparib treatment was maintained for up to 150 days in olaparib-sensitive tumors until individual tumors regrew. In all experiments, mouse weight was recorded twice weekly. The tumor volume was calculated as V=4π/3/Lx12, “L” being the largest diameter and “1” the smallest. Mice were euthanized when tumors reached 1500 mm3 or in case of severe weight loss, in accordance with institutional guidelines. The antitumor activity was determined by comparing tumor volume at 21 days to its baseline: % tumor volume change=(V21 days−Vinitial)/Vinitial×100. For olaparib-sensitive PDX, the best response was defined as the minimum value of % tumor volume change sustained for at least 10 days. To classify the antitumor response, the Response Evaluation Criteria In Solid Tumors (RECIST) criteria on the % tumor volume change was followed: CR (complete response), best response<−95%; PR (partial response), −95<best response<−30%; SD (stable disease), −30%<best response<+20%, PD (progressive disease), best response>+20%.

γH2AX foci = test: γH2AX nuclear foci by immunofluorescence in FFPE PDX tumors; assay type: in vivo, mice
Experimental: as §1, §2, §3

O=C(c1cc(Cc2n[nH]c(=O)c3ccccc23)ccc1F)N1CCN(C(=O)C2CC2)CC1 [olaparib] was tested, and the “percentage of RAD51 foci/geminin-positive cells (RAD51 score)” value (RAD51 foci; olaparib-treated samples from resistant PDX models (FIG. 2C)) was “significantly increased”, the “RAD51 foci formation, percentage of tumor cells with RAD51 nuclear foci” value (RAD51 foci; treated vs vehicle, olaparib-resistant PDX models (FIG. 2A)) was “increased; also recorded: only significantly induced in the olaparib resistant PDX models” and the “number of PDX models in which treatment exhibited antitumor activity as assessed by RECIST” value ([1]; of 44 PDX models (39 BrC, 3 HGSOC/OvC, 2 PaC), p.o. daily, CR/PR/SD) was “ten”. For the same molecule, the “number of PDX models with complete response (CR)” value ([1]; of 44 PDX models, CR: best response <-95% tumor volume change) was 6, the “number of PDX models with progressive disease (PD), olaparib-resistant” value ([1]; of 44 PDX models, PD: best response >+20%) was 34 and the “number of PDX models with partial response (PR)” value ([1]; of 44 PDX models, PR: -95<best response<-30%) was 2. The “γH2AX foci formation, percentage of tumor cells with γH2AX nuclear foci” value (γH2AX foci; treated vs vehicle PDX tumors, sensitive and resistant groups (FIG. 2A)) was “increased; also recorded: induces” and the “γH2AX foci formation in geminin-positive cells” value (γH2AX foci; treated vs vehicle, both sensitive and resistant tumors (FIG. 2B)) was “increased; also recorded: significantly increases”.
